Our source for the IC50 values is patent publication US20260125389A1, “MEMBRANE-ASSOCIATED TYROSINE AND THREONINE KINASE INHIBITOR AND USE THEREOF” (HAINAN SIMCERE ZAIMING PHARMACEUTICAL CO., LTD., priority 2022, published 2026).

pIC50: −log10 of the molar value.

The pIC50 is −log10 of the IC50, conventionally taken in molar units.

The test system of the assay is HCC1569 cells. The assay is described as follows: Inhibition of tumor cell proliferation (CTG, HCC1569). Format: cell-based. The following applies: Homo sapiens, 168 h, 7 days incubation, CTG readout, read-out: IC50 of compounds for inhibition of HCC1569 cell growth. The method, then:
Experimental principle: The compound was incubated with tumor cells for 7 days, and ATP in viable cells was quantified using the CTG kit from Promega to evaluate the effect of the compound on tumor cell proliferation.
Experimental method: The cultured cells were resuspended after being rinsed with PBS (for adherent cells) and digested with 0.25% Trypsin-EDTA, followed by cell counting to determine cell density and viability. 3000 HCC1569 cells/well were diluted with RPMI Medium 1640 containing 10% FBS, added to a 96-well plate (90 μL/well), and cultured in an incubator at 37° C. with 5% CO2 for 24 h. The test compound was diluted to different concentrations in dimethyl sulfoxide (DMSO) and added to a 96-well plate. Thus, the final concentration of the compound in the reaction system started at 25 μM and was subjected to a 4-fold serial dilution, with the final DMSO concentration maintained at 0.25%. The compound and cells were further incubated at 37° C. with 5% CO2 for 7 days. 50 μL/well of CTG was then added to measure the inhibitory effect of the compound on tumor cell growth, and the inhibition rate and half-maximal inhibitory concentration (IC50) were calculated.
The % compound inhibition was calculated and fitted using XLfit software to obtain the IC50 of the compound.
Blank wells and DMSO wells were set up. The blank well contained 100 μL of RPMI Medium 1640 with 10% FBS, where the inhibition rate of the compound on tumor cell growth was considered 100%. The DMSO well contained 0.25% DMSO added to the cell well, where the inhibition rate of the compound on tumor cell growth was considered 0%.

As for `COc1cccc2c1CNC(=O)c1c(N)n(-c3c(C)ccc(O)c3C)c3nc(C)nc-2c13` [Compound 11, 2-amino-1-(3-hydroxy-2,6-dimethylphenyl)-6-methoxy-11-methyl-4,5-dihydro-1,4,10,12-tetraazabenzo[4,5]cyclooctatetraeno[1,2,3-cd]inden-3(1H)-one], the negative-log IC50 (pIC50) is 7.23.

Take `Cc1nc2c3c(c(N)n(-c4c(C)ccc(O)c4C)c3n1)C(=O)Nc1cnccc1-2` [Compound 18, 5-amino-4-(3-hydroxy-2,6-dimethylphenyl)-2-methyl-4,7-dihydro-6H-1,3,4,7,9-pentaazadibenzo[cd,f]azulen-6-one]: the negative logarithm of the IC50 (pIC50) is 7.96.

As for `Cc1nc2c3c(c(N)n(-c4c(C)ccc(O)c4C)c3n1)C(=O)NCc1c-2ccnc1OCF` [Compound 40, 2-amino-6-(fluoromethoxy)-1-(3-hydroxy-2,6-dimethylphenyl)-11-methyl-4,5-dihydro-1,4,7,10,12-pentaazabenzo[4,5]cyclooctatetraeno[1,2,3-cd]inden-3(1H)-one], the pIC50 is 7.06.

`Cc1nc2c3c(c(N)n(-c4c(C)ccc(O)c4C)c3n1)C(=O)Nc1ccncc1-2` [Compound 19, 5-amino-4-(3-hydroxy-2,6-dimethylphenyl)-2-methyl-4,7-dihydro-6H-1,3,4,7,10-pentaazadibenzo[cd,f]azulen-6-one]: the pIC50 is 7.30.

With `Cc1nc2c3c(c(N)n(-c4c(C)ccc(O)c4C)c3n1)C(=O)NCc1nc(C(F)(F)F)ccc1-2` [Compound 29, 2-amino-1-(3-hydroxy-2,6-dimethylphenyl)-11-methyl-7-(trifluoromethyl)-4,5-dihydro-1,4,6,10,12-pentaazabenzo[4,5]cyclooctatetraeno[1,2,3-cd]inden-3(1H)-one], the negative-log IC50 (pIC50) was 6.25.

Turning to `COc1nccc2c1CNC(=O)c1c(N)n(-c3c(C)ccc(O)c3C)c3nc(C)nc-2c13` [Compound 23, 2-amino-1-(3-hydroxy-2,6-dimethylphenyl)-6-methoxy-11-methyl-4,5-dihydro-1,4,7,10,12-pentaazabenzo[4,5]cyclooctatetraeno[1,2,3-cd]inden-3(1H)-one], the negative logarithm of the IC50 (pIC50) was 7.60.

For `Cc1ccc(O)c(C)c1-n1c(N)c2c3c(c(C)c(C)nc31)-c1nn(C)cc1NC2=O` [Compound 44, 5-amino-4-(3-hydroxy-2,6-dimethylphenyl)-1,2,9-trimethyl-7,9-dihydro-3,4,7,9,10-pentaazabenzo[cd]cyclopenta[f]azulen-6(4H)-one], the pIC50 was 7.26.

For the molecule `Cc1nc2c3c(c(N)n(-c4c(C)ccc(O)c4C)c3n1)C(=O)Nc1cccnc1-2` [Compound 20, 5-amino-4-(3-hydroxy-2,6-dimethylphenyl)-2-methyl-4,7-dihydro-6H-1,3,4,7,11-pentaazadibenzo[cd,f]azulen-6-one], the pIC50 was 7.59.

On to `CCc1nccc2c1CNC(=O)c1c(N)n(-c3c(C)ccc(O)c3C)c3nc(C)nc-2c13` [Compound 35, 2-amino-6-ethyl-1-(3-hydroxy-2,6-dimethylphenyl)-11-methyl-4,5-dihydro-1,4,7,10,12-pentaazabenzo[4,5]cyclooctatetraeno[1,2,3-cd]inden-3(1H)-one], for which the pIC50 was 7.39.

Take `Cc1nc2c3c(c(N)n(-c4c(C)ccc(O)c4C)c3n1)C(=O)Nc1sncc1-2` [Compound 37, 5-amino-4-(3-hydroxy-2,6-dimethylphenyl)-2-methyl-4,7-dihydro-6H-8-thia-1,3,4,7,9-pentaazabenzo[cd]cyclopenta[f]azulen-6-one]: the negative-log IC50 (pIC50) was 7.47.

In the case of `CCOc1nccc2c1CNC(=O)c1c(N)n(-c3c(C)ccc(O)c3C)c3nc(C)nc-2c13` [Compound 47, 2-amino-6-ethoxy-1-(3-hydroxy-2,6-dimethylphenyl)-11-methyl-4,5-dihydro-1,4,7,10,12-pentaazabenzo[4,5]cyclooctatetraeno[1,2,3-cd]inden-3(1H)-one], the negative-log IC50 (pIC50) was 7.49.

Consider `Cc1nc2c3c(c(N)n(-c4c(C)ccc(O)c4C)c3n1)C(=O)NCc1c-2ccnc1C1CC1` [Compound 46, 2-amino-6-cyclopropyl-1-(3-hydroxy-2,6-dimethylphenyl)-11-methyl-4,5-dihydro-1,4,7,10,12-pentaazabenzo[4,5]cyclooctatetraeno[1,2,3-cd]inden-3(1H)-one], for which the negative logarithm of the IC50 (pIC50) is 6.95.

Regarding `Cc1nc2c3c(c(N)n(-c4c(C)ccc(O)c4C)c3n1)C(=O)NCc1cnccc1-2` [Compound 5, 2-amino-1-(3-hydroxy-2,6-dimethylphenyl)-11-methyl-4,5-dihydro-1,4,7,10,12-pentaazabenzo[4,5]cyclooctatetraeno[1,2,3-cd]inden-3(1H)-one], the negative-log IC50 (pIC50) was 6.27.

With `Cc1nc2c3c(c(N)n(-c4c(C)ccc(O)c4C)c3n1)C(=O)NCc1nc(CO)ccc1-2` [Compound 32, 2-amino-1-(3-hydroxy-2,6-dimethylphenyl)-7-(hydroxymethyl)-11-methyl-4,5-dihydro-1,4,6,10,12-pentaazabenzo[4,5]cyclooctatetraeno[1,2,3-cd]inden-3(1H)-one], the negative logarithm of the IC50 (pIC50) is 6.10.

On to `Cc1nc2c3c(c(N)n(-c4c(C)ccc(O)c4C)c3n1)C(=O)NCc1c-2ccnc1OC(F)F` [Compound 39, 2-amino-6-(difluoromethoxy)-1-(3-hydroxy-2,6-dimethylphenyl)-11-methyl-4,5-dihydro-1,4,7,10,12-pentaazabenzo[4,5]cyclooctatetraeno[1,2,3-cd]inden-3(1H)-one], for which the negative logarithm of the IC50 (pIC50) is 7.09.

Turning to `Cc1nc2c3c(c(N)n(-c4c(C)ccc(O)c4C)c3n1)C(=O)Nc1scnc1-2` [Compound 38, 5-amino-4-(3-hydroxy-2,6-dimethylphenyl)-2-methyl-4,7-dihydro-6H-8-thia-1,3,4,7,10-pentaazabenzo[cd]cyclopenta[f]azulen-6-one], the negative logarithm of the IC50 (pIC50) was 7.04.

Consider `Cc1nc2c3c(c(N)n(-c4c(C)ccc(O)c4C)c3n1)C(=O)Nc1c-2cnn1C(F)F` [Compound 42, 5-amino-8-(difluoromethyl)-4-(3-hydroxy-2,6-dimethylphenyl)-2-methyl-7,8-dihydro-1,3,4,7,8,9-hexaazabenzo[cd]cyclopenta[f]azulen-6(4H)-one], for which the negative logarithm of the IC50 (pIC50) is 7.33.

Consider `Cc1nc2c3c(c(N)n(-c4c(C)ccc(O)c4C)c3n1)C(=O)NCc1ncccc1-2` [Compound 4, 2-amino-1-(3-hydroxy-2,6-dimethylphenyl)-11-methyl-4,5-dihydro-1,4,6,10,12-pentaazabenzo[4,5]cyclooctatetraeno[1,2,3-cd]inden-3(1H)-one], for which the negative-log IC50 (pIC50) was 6.62.

For `COCCn1ncc2c1NC(=O)c1c(N)n(-c3c(C)ccc(O)c3C)c3nc(C)nc-2c13` [Compound 43, 5-amino-4-(3-hydroxy-2,6-dimethylphenyl)-8-(2-methoxyethyl)-2-methyl-7,8-dihydro-1,3,4,7,8,9-hexaazabenzo[cd]cyclopenta[f]azulen-6(4H)-one], the pIC50 was 6.54.

Turning to `Cc1nc2c3c(c(N)n(-c4c(C)ccc(O)c4C)c3n1)C(=O)Nc1ncccc1-2` [Compound 17, 5-amino-4-(3-hydroxy-2,6-dimethylphenyl)-2-methyl-4,7-dihydro-6H-1,3,4,7,8-pentaazadibenzo[cd,f]azulen-6-one], the pIC50 is 7.61.

For `Cc1nc2c3c(c(N)n(-c4c(C)ccc(O)c4C)c3n1)C(=O)NCc1nc(OC3CC3)ccc1-2` [Compound 31, 2-amino-7-cyclopropoxy-1-(3-hydroxy-2,6-dimethylphenyl)-11-methyl-4,5-dihydro-1,4,6,10,12-pentaazabenzo[4,5]cyclooctatetraeno[1,2,3-cd]inden-3(1H)-one], the pIC50 is 6.53.

For `Cc1nc2c3c(c(N)n(-c4c(C)ccc(O)c4C)c3n1)C(=O)Nc1c-2c(C)nn1C` [Compound 34, 2-amino-1-(3-hydroxy-2,6-dimethylphenyl)-5,7,9-trimethyl-4,5-dihydro-1,4,5,6,8,10-hexaazabenzo[cd]cyclopenta[f]azulen-3(1H)-one], the negative logarithm of the IC50 (pIC50) was 8.04.

As to `COc1c(F)ccc2c1CNC(=O)c1c(N)n(-c3c(C)ccc(O)c3C)c3nc(C)nc-2c13` [Compound 30, 2-amino-7-fluoro-1-(3-hydroxy-2,6-dimethylphenyl)-6-methoxy-11-methyl-4,5-dihydro-1,4,10,12-tetraazabenzo[4,5]cyclooctatetraeno[1,2,3-cd]inden-3(1H)-one], the negative logarithm of the IC50 (pIC50) was 6.51.

For the molecule `Cc1nc2c3c(c(N)n(-c4c(C)ccc(O)c4C)c3n1)C(=O)NCc1c-2ccnc1OC(F)(F)F` [Compound 41, 2-amino-1-(3-hydroxy-2,6-dimethylphenyl)-11-methyl-6-(trifluoromethoxy)-4,5-dihydro-1,4,7,10,12-pentaazabenzo[4,5]cyclooctatetraeno[1,2,3-cd]inden-3(1H)-one], the pIC50 is 7.06.

As to `Cc1nc2c3c(c(N)n(-c4c(C)ccc(O)c4C)c3n1)C(=O)Nc1c-2cnn1C1CC1` [Compound 33, 5-amino-8-cyclopropyl-4-(3-hydroxy-2,6-dimethylphenyl)-2-methyl-7,8-dihydro-1,3,4,7,8,9-hexaazabenzo[cd]cyclopenta[f]azulen-6(4H)-one], the pIC50 was 7.31.

Turning to `Cc1nc2c3c(c(N)n(-c4c(C)ccc(O)c4C)c3n1)C(=O)Nc1c(F)cncc1-2` [Compound 16, 5-amino-8-fluoro-4-(3-hydroxy-2,6-dimethylphenyl)-2-methyl-4,7-dihydro-6H-1,3,4,7,10-pentaazadibenzo[cd,f]azulen-6-one], the pIC50 is 6.58.
